pIC50: −log10 of the molar value. Where two headings read alike, the source gives them in different places.
Test system: HSV-2
Experiment: Plaque reduction assay, HSV-2 clinical isolates on Vero cells
Format: cell-based
Settings: Human alphaherpesvirus 2, Vero
Source text: Viral isolates were used to infect a sub-confluent monolayer of Vero cells at a concentration of 75 or 50 plaque forming units (PFU) per well for HSV-1 and HSV-2, respectively. […] CMC medium typically used to create a semisolid interface and prevents indiscrimate viral spreading. Other materials (e.g. agar) may also be used to create this interface.
Cells were fixed with 10% formalin and stained with crystal violet before enumeration of the plaques (microscopic observation or use of fluorescent antibodies for detection is also suitable). The data obtained from these experiments were then expressed as percent inhibition of viral infectivity relative to the no drug control.
Definitions of phenotypic drug susceptibility classification as sensitive or resistant were as follows: ACV, <3 μM or >40 μM; PCV, <10 μM or >40 μM; CDV, <24 μM or >30 μM; FOS, <250 μM or >400 μM; and ACV, <6.5 μM or >40 μM; PCV, <38 μM or >40 μM; FOS, <250 μM or >400 μM for HSV-1 and HSV-2, respectively. Any IC50 values falling in between these sensitive and resistant cut-offs were reported as intermediate resistance.
The phenotype (i.e. reactivity to a drug) of the virus was characterised by the plaque reduction assay as described above. The present inventors have characterised the resistance-causing phenotype of a large number of TK and DNA pol mutations.

O=C(O)P(=O)(O)O [Foscarnet, foscarnet]
pIC50 (isolate HPG001, HSV-2 TK A125T (373G>A), read-out: Drug susceptibility (IC50 value)): 3.63
pIC50 (isolate HPG001, HSV-2 TK A125T (373G>A), read-out: Drug susceptibility Foscarnet (FOS)): > 3.60
pIC50 (isolate HPG001, HSV-2 pol H714R (2141A>G), read-out: Drug susceptibility (IC50 value)): 3.63
pIC50 (isolate HPG001, HSV-2 pol H714R (2141A>G), read-out: Drug susceptibility Foscarnet (FOS)): > 3.60
pIC50 (isolate HPG004, HSV-2 pol M494T (1481T>C), also pol S729N, read-out: Drug susceptibility (IC50 value)): 3.46
pIC50 (isolate HPG004, HSV-2 pol M494T (1481T>C), also pol S729N, read-out: Drug susceptibility Foscarnet (FOS)): 3.40 to 3.60
pIC50 (isolate HPG007, HSV-2 pol R628G (1882C>G), read-out: Drug susceptibility (IC50 value)): 3.11
pIC50 (isolate HPG007, HSV-2 pol R628G (1882C>G), read-out: Drug susceptibility Foscarnet (FOS)): < 3.40
pIC50 (isolate HPG017, HSV-2 TK Q186H (558G>T), read-out: Drug susceptibility (IC50 value)): 3.93
pIC50 (isolate HPG017, HSV-2 TK Q186H (558G>T), read-out: Drug susceptibility Foscarnet (FOS)): > 3.60
pIC50 (isolate HPG022, HSV-2 TK E213D (639A>C), read-out: Drug susceptibility (IC50 value)): 4.09
pIC50 (isolate HPG022, HSV-2 TK E213D (639A>C), read-out: Drug susceptibility Foscarnet (FOS)): > 3.60
pIC50 (isolate HPG022, HSV-2 pol D174Y (520G>T), read-out: Drug susceptibility (IC50 value)): 4.09
pIC50 (isolate HPG022, HSV-2 pol D174Y (520G>T), read-out: Drug susceptibility Foscarnet (FOS)): > 3.60
pIC50 (isolate HPG023, HSV-2 TK Q186H (558G>T), read-out: Drug susceptibility (IC50 value)): 4.11
pIC50 (isolate HPG023, HSV-2 TK Q186H (558G>T), read-out: Drug susceptibility Foscarnet (FOS)): > 3.60
pIC50 (isolate HPG024, HSV-2 TK E213D (639A>C), read-out: Drug susceptibility (IC50 value)): 4.05
pIC50 (isolate HPG024, HSV-2 TK E213D (639A>C), read-out: Drug susceptibility Foscarnet (FOS)): > 3.60
pIC50 (isolate HPG028, HSV-2 TK 98stop or A94fs (276delG, 278delG, 279delG, or 280delG), read-out: Drug susceptibility (IC50 value)): 4.01
pIC50 (isolate HPG028, HSV-2 TK 98stop or A94fs (276delG, 278delG, 279delG, or 280delG), read-out: Drug susceptibility Foscarnet (FOS)): > 3.60
pIC50 (isolate HPG028, HSV-2 pol E776Q (2326G>C), also TK deletion (G) nt 276-280, read-out: Drug susceptibility (IC50 value)): 4.01
pIC50 (isolate HPG028, HSV-2 pol E776Q (2326G>C), also TK deletion (G) nt 276-280, read-out: Drug susceptibility Foscarnet (FOS)): > 3.60
pIC50 (isolate HPG028, HSV-2 pol R775C, R775W (2323C>T; 2325C>G), also TK deletion (G) nt 276-280, read-out: Drug susceptibility (IC50 value)): 4.01
pIC50 (isolate HPG028, HSV-2 pol R775C, R775W (2323C>T; 2325C>G), also TK deletion (G) nt 276-280, read-out: Drug susceptibility Foscarnet (FOS)): > 3.60
pIC50 (isolate HPG030, HSV-2 TK Q90stop (268C>T), read-out: Drug susceptibility (IC50 value)): 4.03
pIC50 (isolate HPG030, HSV-2 TK Q90stop (268C>T), read-out: Drug susceptibility Foscarnet (FOS)): > 3.60
pIC50 (isolate HPG030, HSV-2 pol E761K (2281G>A), also TK Q90stop, read-out: Drug susceptibility (IC50 value)): 4.03
pIC50 (isolate HPG030, HSV-2 pol E761K (2281G>A), also TK Q90stop, read-out: Drug susceptibility Foscarnet (FOS)): > 3.60
pIC50 (isolate HPG034, HSV-2 TK L313S (938A>C), read-out: Drug susceptibility Foscarnet (FOS)): > 3.60
pIC50 (isolate HPG036, HSV-2 TK E84K (250G>A), read-out: Drug susceptibility (IC50 value)): 4.10
pIC50 (isolate HPG036, HSV-2 TK E84K (250G>A), read-out: Drug susceptibility Foscarnet (FOS)): > 3.60
pIC50 (isolate HPG038, HSV-2 TK R34C (100C>T), read-out: Drug susceptibility (IC50 value)): 4.13
pIC50 (isolate HPG038, HSV-2 TK R34C (100C>T), read-out: Drug susceptibility Foscarnet (FOS)): > 3.60
pIC50 (isolate HPG044, HSV-2 TK M86L (256A>C), read-out: Drug susceptibility (IC50 value)): 4.13
pIC50 (isolate HPG044, HSV-2 TK M86L (256A>C), read-out: Drug susceptibility Foscarnet (FOS)): > 3.60
pIC50 (isolate HPG048, HSV-2 TK Q90stop (268C>T), read-out: Drug susceptibility (IC50 value)): 4.24
pIC50 (isolate HPG048, HSV-2 TK Q90stop (268C>T), read-out: Drug susceptibility Foscarnet (FOS)): > 3.60
pIC50 (isolate HPG048, HSV-2 pol E761K (2281G>A), also TK Q90stop, read-out: Drug susceptibility (IC50 value)): 4.24
pIC50 (isolate HPG048, HSV-2 pol E761K (2281G>A), also TK Q90stop, read-out: Drug susceptibility Foscarnet (FOS)): > 3.60
pIC50 (isolate HPG057, HSV-2 TK 98stop or A94fs (276delG, 278delG, 279delG, or 280delG), read-out: Drug susceptibility (IC50 value)): 4.01
pIC50 (isolate HPG057, HSV-2 TK 98stop or A94fs (276delG, 278delG, 279delG, or 280delG), read-out: Drug susceptibility Foscarnet (FOS)): > 3.60
pIC50 (isolate HPG058, HSV-2 TK 183stop or P154fs (458delC, 459delC, 460delC, or 461delC), read-out: Drug susceptibility (IC50 value)): 4.23
pIC50 (isolate HPG058, HSV-2 TK 183stop or P154fs (458delC, 459delC, 460delC, or 461delC), read-out: Drug susceptibility Foscarnet (FOS)): > 3.60
pIC50 (read-out: Drug susceptibility (IC50 value), isolate HPG034, HSV-2 TK L313S (938A>C)): 4.13
pIC50 (read-out: Drug susceptibility (IC50 value), isolate HPG056, HSV-2 pol M447L (1339A>C)): 4.06
pIC50 (read-out: Drug susceptibility Foscarnet (FOS), isolate HPG056, HSV-2 pol M447L (1339A>C)): > 3.60
